# Structures can show the parent of a compound that is named as a salt.
# Target: T1, recombinant human PDK1 (Homo sapiens, UniProt O15530)
# T1 construct: containing amino acids 51-556 of the human PDK1 enzyme; made in house; host or cells: Sf9 insect cells
# T1 sequence (O15530 51-556): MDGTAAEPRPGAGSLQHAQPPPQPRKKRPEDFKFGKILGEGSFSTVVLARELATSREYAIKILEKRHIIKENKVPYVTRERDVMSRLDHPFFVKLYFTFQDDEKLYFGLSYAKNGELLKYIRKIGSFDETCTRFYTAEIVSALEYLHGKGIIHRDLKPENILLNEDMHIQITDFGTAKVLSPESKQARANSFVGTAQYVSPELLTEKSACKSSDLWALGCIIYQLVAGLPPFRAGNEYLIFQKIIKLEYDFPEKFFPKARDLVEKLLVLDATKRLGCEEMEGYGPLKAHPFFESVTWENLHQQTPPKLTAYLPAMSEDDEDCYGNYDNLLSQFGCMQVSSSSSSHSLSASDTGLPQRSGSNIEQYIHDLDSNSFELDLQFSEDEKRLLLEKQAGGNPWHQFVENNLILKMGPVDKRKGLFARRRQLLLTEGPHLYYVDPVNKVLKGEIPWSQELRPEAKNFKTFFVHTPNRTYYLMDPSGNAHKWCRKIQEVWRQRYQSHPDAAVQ
# Assay: PDK1 IMAP fluorescence polarization kinase assay
# Format: biochemical
# Settings: 10 nM PDK1, 100 nM peptide substrate, 100 nM PIFtide, 2.5 uM ATP, 1.5 hours
row,SMILES,IC50 [nM]
1,"O=C(Nc1cc2[nH]ncc2cc1-c1cccc(CN2CCCC2)c1)c1csc(-c2cc(C(F)(F)F)n[nH]2)n1 [Compound 1-11, N-(5-(3-(pyrrolidin-1-ylmethyl)phenyl)-1H-indazol-6-yl)-2-(3-(trifluoromethyl)-1H-pyrazol-5-yl)thiazole-4-carboxamide]",33
2,"NC1(c2ccc(-c3cc4cn[nH]c4cc3NC(=O)c3csc(-c4cc(C(F)(F)F)n[nH]4)n3)cc2)CC1 [Compound 1-18, N-(5-(4-(1-aminocyclopropyl)phenyl)-1H-indazol-6-yl)-2-(3-(trifluoromethyl)-1H-pyrazol-5-yl)thiazole-4-carboxamide]",1860
3,"O=C(Nc1cc2[nH]ncc2cc1-c1cccc(CN2CCCCC2)c1)c1csc(-c2cc(C(F)(F)F)n[nH]2)n1 [Compound 3-5, N-(5-(3-(piperidin-1-ylmethyl)phenyl)-1H-indazol-6-yl)-2-(3-(trifluoromethyl)-1H-pyrazol-5-yl)thiazole-4-carboxamide hydrochloride]",170
4,"Cc1cc(CN)ccc1-c1cc2cn[nH]c2cc1NC(=O)c1csc(-c2cc(C(F)(F)F)n[nH]2)n1 [Compound 4-6, N-(5-(4-(aminomethyl)-2-methylphenyl)-1H-indazol-6-yl)-2-(3-(trifluoromethyl)-1H-pyrazol-5-yl)thiazole-4-carboxamide]",108
5,"Cc1cc(-c2nc(C(=O)Nc3cc4[nH]ncc4cc3-c3ccc4c(c3)CNC4)cs2)[nH]n1 [Compound 5-7, N-(5-(isoindolin-5-yl)-1H-indazol-6-yl)-2-(3-methyl-1H-pyrazol-5-yl)thiazole-4-carboxamide]",85

# Source: patent US20130053382A1, “Inhibitors of Phosphoinositide Dependent Kinase 1 (PDK1)” (priority 2010, published 2013)
